Results on one substance are retold here after patent publication US20240050454A1, “Compositions and Methods For Treating Neurological Conditions” (WeSana Health Inc., priority 2020, published 2024).

Entries after “also recorded” stand apart in the source; their conditions may differ.

For assay [1], the system named is mice (BALB/c). The experiment in a line: Tail suspension test (TST), psilocybin loading dose then psilocybin+CBD+6 MB maintenance.
Assay [2] relates to mice (BALB/c). The experiment in a line: Elevated plus maze (EPM), anxiety-like behavior.
Setting [3] is: psilocybin: loading dose 5 mg/kg alone, combination: given after the psilocybin loading dose.

“[3-(2-dimethylaminoethyl)-1H-indol-4-yl] dihydrogen phosphate [psilocybin]”: the “immobile posture time in TST” value in assay [1] (Day 15, psilocybin loading dose 5 mg/kg on Day 1, FIG. 4A) is listed as “decreased”. The “depression / depressive symptoms in mouse models” value in assay [1] (setting [3]) is on record as “decreased”. For the same substance, in assay [1] (three weeks after 5 mg/kg loading dose of psilocybin (Day 22), loading dose only), the “time spent immobile in TST” value is listed as “significant decrease”. Further, the “percentage of time spent in open space (open arms of the EPM)” value in assay [2] (Day 14, two weeks after psilocybin loading dose 5 mg/kg, vs vehicle control, FIG. 2, 5 mg/kg) is “significantly increased; also recorded: more time”. Further, the “anxiety in mouse models” value in assay [2] (setting [3]) is “decreased”.
